This is an account of results in paper PMC9976893, “Dynamic states of eIF6 and SDS variants modulate interactions with uL14 of the 60S ribosomal subunit” (Nucleic Acids Research, 2023).

The test has as its system full-length human eIF6. The test is described as follows: Surface plasmon resonance of uL14 peptides on immobilized eIF6. Particulars: BIAcore S200, eIF6 on CM5 chip, peptide 0-500 μM in 20 mM HEPES pH 7.4, 150 mM NaCl, 0.01% BSA, 0.002% Tween 20; repeated three times; non-specific binding subtracted. Here is the method: SPR analyses were carried out using a BIAcore S200 instrument (GE-Healthcare). eIF6 (50 μg/ml) was solubilized in 20 mM ammonium acetate pH 4.0 and immediately immobilized on a CM5 sensor chip (4913 Response Units [RU] using NHS/EDC chemistry). After baseline stabilization, titrations were performed by injecting increasing concentrations (0–500 μM, 1:2 dilutions) of uL14-WT ([…]), the site-specific mutant peptides, or the uL14-ΔC ([…]) peptide, solubilized in running buffer (20 mM HEPES pH 7.4, 150 mM NaCl, 0.01% BSA, and 0.002% Tween 20). At the end of each titration, a solution of 20 mM HEPES pH 7.4 and 1.5 M NaCl was used to regenerate the chip. The flow rate was 25 μl/min. Peptides were solubilized in water and their concentration determined at 280 nm using the molar extinction coefficient ϵ280 = 5500 M^−1 cm^−1. To ensure reproducibility, each experiment was repeated three times. Sensograms were corrected for baseline.
For SPR studies, full-length elF6 was immobilized to the surface, and the C-terminal peptide of uL14 (aa 121–140) was used in the fluid phase (Figure 2D). […] The contribution of non-specific binding of the peptide to the surface was subtracted for each sensorgram. […] It further highlighted the significance of the N135 and S138 for interaction with eIF6. […]
In general terms: SPR reads the build-up and loss of mass on a sensor chip optically.

Regarding VAKECADLWPRI [uL14-ΔC], the “binding to immobilized eIF6 (SPR)” value is “complete loss in binding”.
